From ChEMBL document CHEMBL1151983, “Antiprotealide is a natural product” (J Nat Prod, 2009)
“And” between values parts separate entries of the source, which are not always exact repeats. Equal values may be shown once.

Columns and labels:
[1] = Inhibition of chymotrypsin-like activity of rabbit 20S proteasome; design: species or system Oryctolagus cuniculus
[2] = Inhibition of trypsin-like activity of rabbit 20S proteasome; design: species or system Oryctolagus cuniculus
[3] = Inhibition of caspase-like activity of rabbit 20S proteasome; design: species or system Oryctolagus cuniculus
[4] = test system: RPMI-8226; experiment: Cytotoxicity against human RPMI8226 cells after 48 hrs by resazurin assay; assay type: functional, cell-based

Compound	IC50 [1]	IC50 [2]	IC50 [3]	IC50 ([4]; Homo sapiens, RPMI-8226, 48 h)	IC50 ([4]; rpmi-8226)
CC(C)[C@H](O)[C@@]12NC(=O)[C@H](CCCl)[C@]1(C)OC2=O [ANTIPROTEALIDE]	0.027 µM and 0.031 µM	0.211 µM and 0.262 µM	> 20 µM	0.22 µM	0.283 µM
C[C@@]12OC(=O)[C@]1([C@@H](O)[C@@H]1C=CCCC1)NC(=O)[C@@H]2CCCl [MARIZOMIB]	0.004 µM	0.034 µM	0.364 µM	0.011 µM	–
